Experimental data taken from ChEMBL document CHEMBL6074678, “Selectively Antagonizing the NOD1-Mediated Inflammatory Signaling Pathway Mitigates the Gastric Inflammation Induced by Helicobacter pylori Infection” (J Med Chem, 2024).

Legend:
[1] = molecular target: T1, Nucleotide-binding oligomerization domain-containing protein 1 (Homo sapiens, UniProt Q9Y239); test: Antagonist activity at human NOD1 expressed in HEK-Blue cells assessed as decrease in SEAP secretion incubated for 3 hrs followed by C12-iE-DAP stimulation for 20 hrs by spectrophotometry; format: cell-based, HEK-Blue hNOD1
T1 sequence (Q9Y239 whole entry): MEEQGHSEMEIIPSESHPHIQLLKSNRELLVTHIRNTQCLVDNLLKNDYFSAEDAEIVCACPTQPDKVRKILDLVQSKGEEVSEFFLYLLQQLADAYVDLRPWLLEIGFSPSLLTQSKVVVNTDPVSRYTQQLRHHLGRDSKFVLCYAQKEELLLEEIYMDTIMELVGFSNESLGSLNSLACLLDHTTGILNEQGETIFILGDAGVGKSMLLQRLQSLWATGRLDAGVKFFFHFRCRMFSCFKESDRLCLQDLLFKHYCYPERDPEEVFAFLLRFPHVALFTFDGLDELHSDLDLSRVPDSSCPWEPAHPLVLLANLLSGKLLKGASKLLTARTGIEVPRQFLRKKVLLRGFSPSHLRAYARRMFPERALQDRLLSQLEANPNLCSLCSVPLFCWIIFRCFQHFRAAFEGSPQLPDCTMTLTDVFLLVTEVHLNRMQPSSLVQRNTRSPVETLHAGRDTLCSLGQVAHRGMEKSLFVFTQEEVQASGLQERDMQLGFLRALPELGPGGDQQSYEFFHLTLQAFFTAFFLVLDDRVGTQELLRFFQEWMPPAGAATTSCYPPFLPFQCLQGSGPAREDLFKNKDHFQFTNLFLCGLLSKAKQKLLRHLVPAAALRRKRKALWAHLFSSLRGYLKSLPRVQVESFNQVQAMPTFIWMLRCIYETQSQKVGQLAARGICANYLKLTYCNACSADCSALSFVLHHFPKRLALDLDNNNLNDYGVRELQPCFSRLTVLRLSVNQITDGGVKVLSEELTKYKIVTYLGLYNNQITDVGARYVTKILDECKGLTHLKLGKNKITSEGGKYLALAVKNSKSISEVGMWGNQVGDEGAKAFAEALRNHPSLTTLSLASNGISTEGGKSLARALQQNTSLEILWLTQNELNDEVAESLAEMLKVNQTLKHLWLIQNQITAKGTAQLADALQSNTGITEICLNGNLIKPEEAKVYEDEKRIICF

[2] = molecular target: T2, Nucleotide-binding oligomerization domain-containing protein 1 (Mus musculus, UniProt Q8BHB0); test: Antagonist activity at mouse NOD1 expressed in HEK-Blue cells assessed as decrease in SEAP secretion incubated for 3 hrs followed by C12-iE-DAP stimulation for 20 hrs by spectrophotometry; format: cell-based, HEK-Blue mNOD1
T2 sequence (Q8BHB0 whole entry): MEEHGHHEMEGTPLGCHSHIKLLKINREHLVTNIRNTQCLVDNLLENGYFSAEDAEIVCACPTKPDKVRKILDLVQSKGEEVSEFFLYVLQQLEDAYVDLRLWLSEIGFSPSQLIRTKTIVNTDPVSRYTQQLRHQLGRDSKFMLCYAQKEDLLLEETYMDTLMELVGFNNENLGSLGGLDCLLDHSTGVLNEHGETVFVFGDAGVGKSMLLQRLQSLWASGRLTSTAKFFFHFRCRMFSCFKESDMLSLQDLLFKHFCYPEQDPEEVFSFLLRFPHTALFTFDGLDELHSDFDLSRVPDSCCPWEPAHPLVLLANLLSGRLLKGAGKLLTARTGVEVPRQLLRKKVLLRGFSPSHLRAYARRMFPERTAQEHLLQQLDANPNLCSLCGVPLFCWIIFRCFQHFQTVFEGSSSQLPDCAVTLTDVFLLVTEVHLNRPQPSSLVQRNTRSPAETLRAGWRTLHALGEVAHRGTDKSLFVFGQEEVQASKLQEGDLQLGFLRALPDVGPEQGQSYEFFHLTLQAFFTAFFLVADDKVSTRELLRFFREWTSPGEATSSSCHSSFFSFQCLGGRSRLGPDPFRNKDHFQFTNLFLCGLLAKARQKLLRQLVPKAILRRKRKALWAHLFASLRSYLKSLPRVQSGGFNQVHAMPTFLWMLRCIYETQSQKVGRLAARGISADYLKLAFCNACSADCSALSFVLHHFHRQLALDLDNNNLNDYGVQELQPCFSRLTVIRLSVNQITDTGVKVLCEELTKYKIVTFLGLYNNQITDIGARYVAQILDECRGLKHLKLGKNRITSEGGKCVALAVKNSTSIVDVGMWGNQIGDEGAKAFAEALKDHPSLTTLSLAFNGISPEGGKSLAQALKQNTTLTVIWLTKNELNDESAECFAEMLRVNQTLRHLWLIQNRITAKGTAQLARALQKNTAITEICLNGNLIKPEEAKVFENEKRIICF

[3] = molecular target: Nucleotide-binding oligomerization domain-containing protein 2 (Homo sapiens, UniProt Q9HC29); test: Inhibition of human NOD2 at 1 uM relative to control
Nucleotide-binding oligomerization domain-containing protein 2, sequence (Q9HC29 whole entry, the tested form may be a part): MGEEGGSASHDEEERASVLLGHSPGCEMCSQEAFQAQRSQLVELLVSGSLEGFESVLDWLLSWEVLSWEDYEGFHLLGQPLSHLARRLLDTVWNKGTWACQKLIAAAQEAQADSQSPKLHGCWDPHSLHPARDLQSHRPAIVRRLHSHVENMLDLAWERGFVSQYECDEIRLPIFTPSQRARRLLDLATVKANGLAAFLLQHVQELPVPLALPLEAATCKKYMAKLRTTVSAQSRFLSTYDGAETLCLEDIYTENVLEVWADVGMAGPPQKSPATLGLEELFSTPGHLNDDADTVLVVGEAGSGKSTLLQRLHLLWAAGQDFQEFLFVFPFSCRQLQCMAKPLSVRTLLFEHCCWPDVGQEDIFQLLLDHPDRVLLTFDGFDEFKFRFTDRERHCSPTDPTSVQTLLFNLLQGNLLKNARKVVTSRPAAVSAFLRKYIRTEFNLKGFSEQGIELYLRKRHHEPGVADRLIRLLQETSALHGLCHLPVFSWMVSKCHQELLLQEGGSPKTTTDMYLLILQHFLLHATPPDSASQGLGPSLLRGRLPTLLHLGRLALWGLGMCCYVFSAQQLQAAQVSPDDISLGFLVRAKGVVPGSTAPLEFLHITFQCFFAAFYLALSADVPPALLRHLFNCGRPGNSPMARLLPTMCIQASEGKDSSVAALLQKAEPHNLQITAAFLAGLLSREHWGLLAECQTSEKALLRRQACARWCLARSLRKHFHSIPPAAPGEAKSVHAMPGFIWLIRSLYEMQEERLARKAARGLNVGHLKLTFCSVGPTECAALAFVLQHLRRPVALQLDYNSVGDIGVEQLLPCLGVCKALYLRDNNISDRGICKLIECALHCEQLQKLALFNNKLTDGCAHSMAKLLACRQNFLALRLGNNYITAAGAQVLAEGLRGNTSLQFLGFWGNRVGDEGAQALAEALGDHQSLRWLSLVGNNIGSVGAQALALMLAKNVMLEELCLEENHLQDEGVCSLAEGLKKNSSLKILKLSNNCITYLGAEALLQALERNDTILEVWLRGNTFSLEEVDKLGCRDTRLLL

[4] = molecular target: T3, Toll-like receptor 9 (Homo sapiens) (UniProt Q9NR96); test: Inhibition of human TLR9 at 1 uM relative to control
T3 sequence (whole entry): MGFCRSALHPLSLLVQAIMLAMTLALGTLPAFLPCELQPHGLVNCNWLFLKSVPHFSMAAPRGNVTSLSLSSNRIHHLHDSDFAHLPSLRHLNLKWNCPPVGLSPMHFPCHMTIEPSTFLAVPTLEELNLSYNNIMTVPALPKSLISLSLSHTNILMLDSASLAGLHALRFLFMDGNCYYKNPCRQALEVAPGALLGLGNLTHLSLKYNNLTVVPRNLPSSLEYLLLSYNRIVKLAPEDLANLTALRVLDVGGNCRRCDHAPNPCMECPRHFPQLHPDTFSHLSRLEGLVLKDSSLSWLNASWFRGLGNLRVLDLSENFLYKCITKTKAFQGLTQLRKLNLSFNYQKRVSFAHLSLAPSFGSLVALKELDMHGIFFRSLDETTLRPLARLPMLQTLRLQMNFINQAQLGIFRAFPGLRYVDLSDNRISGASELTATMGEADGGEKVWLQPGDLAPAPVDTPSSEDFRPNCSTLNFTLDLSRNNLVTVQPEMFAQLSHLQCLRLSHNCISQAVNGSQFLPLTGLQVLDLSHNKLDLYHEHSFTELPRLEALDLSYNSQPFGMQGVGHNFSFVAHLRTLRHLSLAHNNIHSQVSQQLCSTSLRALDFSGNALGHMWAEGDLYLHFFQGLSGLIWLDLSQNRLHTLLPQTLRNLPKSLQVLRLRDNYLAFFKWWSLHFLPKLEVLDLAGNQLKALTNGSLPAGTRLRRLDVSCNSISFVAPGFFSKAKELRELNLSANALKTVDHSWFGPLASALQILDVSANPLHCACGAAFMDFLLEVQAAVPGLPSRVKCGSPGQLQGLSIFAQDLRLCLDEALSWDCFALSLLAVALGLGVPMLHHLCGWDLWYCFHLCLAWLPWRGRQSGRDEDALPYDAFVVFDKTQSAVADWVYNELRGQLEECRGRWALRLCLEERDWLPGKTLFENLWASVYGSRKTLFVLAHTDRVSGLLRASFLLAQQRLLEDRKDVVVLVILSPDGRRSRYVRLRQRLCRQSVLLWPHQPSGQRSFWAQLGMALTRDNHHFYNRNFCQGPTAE

N#Cc1ccc2nc(Cl)n(-c3ccc(Cl)c(NS(=O)(=O)c4c(F)cccc4F)c3)c(=O)c2c1
IC50 [1]: 2.2 nM
IC50 [2]: 54 nM
inhibition [3]: < 10%
inhibition [4]: 37.6%

CS(=O)(=O)c1ccc2nc(Cl)n(-c3ccc(Cl)c(NS(=O)(=O)c4ccc5ncsc5c4)c3)c(=O)c2c1
IC50 [1]: 0.9 nM
IC50 [2]: 58 nM
inhibition [3]: 16.1%
inhibition [4]: 73.9%

CS(=O)(=O)c1ccc2nc(Cl)n(-c3ccc(Cl)c(NS(=O)(=O)c4c(F)cccc4F)c3)c(=O)c2c1
IC50 [1]: 0.8 nM
IC50 [2]: 32 nM
inhibition [3]: 36.9%
inhibition [4]: 37.1%
